Reference: US5081117A (priority 1989, dated 1992)
Structures can show the parent of a compound that is named as a salt.

Target: T1, acetylcholinesterase (AChE), rat striatum (Rattus norvegicus, UniProt P37136)
T1 construct: corpora striata dissected free, weighed and homogenized in 19 volumes; from tissue; host or cells: homogenate of corpora striata of male Wistar rats
T1 sequence (P37136 32-614): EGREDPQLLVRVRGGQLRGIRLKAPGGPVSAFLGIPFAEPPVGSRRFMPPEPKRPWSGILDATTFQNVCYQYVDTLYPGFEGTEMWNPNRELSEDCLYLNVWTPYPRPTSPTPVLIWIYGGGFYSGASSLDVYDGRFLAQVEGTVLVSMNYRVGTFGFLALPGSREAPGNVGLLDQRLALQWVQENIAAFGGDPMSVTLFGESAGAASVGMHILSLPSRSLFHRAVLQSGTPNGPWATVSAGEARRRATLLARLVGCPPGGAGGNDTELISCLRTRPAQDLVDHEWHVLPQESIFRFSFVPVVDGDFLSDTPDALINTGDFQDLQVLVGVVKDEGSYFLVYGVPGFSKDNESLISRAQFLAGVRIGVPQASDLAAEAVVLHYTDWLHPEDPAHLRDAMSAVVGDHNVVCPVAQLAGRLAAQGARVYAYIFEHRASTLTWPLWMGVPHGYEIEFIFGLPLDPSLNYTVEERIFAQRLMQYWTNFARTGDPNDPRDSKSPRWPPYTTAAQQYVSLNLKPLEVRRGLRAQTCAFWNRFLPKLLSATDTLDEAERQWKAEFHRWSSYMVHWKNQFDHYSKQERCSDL
Assay: In vitro inhibition of acetylcholinesterase activity in rat striatum (modified Ellman method)
Format: biochemical, Male Wistar rats
From the text: Cholinesterases are found throughout the body, both in the brain and in serum. However, only brain acetylcholinesterase (AChE) distribution is correlated with central cholinergic innervation. […] We have determined in vitro inhibition of acetylcholinesterase activity in rat striatum according to the method described below.
In Vitro Inhibition of Acetylcholinesterase Activity in Rat Striatum
The method described below was used in this invention for assaying anticholinesterase activity. This is a modification of the method of Ellman et al., Biochem. Pharmacol. 7, 88 (1961).
1. 0.05M Phopsphate buffer, pH 7.2
(a) 6.85 g NaH2 PO4 .cndot.H2 O/100 ml distilled H2 O
(c) add (a) to (b) until pH reaches 7.2
(a) 9.9 mg 5,5-dithiobisnitrobenzoic acid (DTNB) (0.25 mM)
(b) 99 mg s-acetylthiocholine chloride (5 mM)
(c) q.s. to 100 ml with 0.05M phosphate buffer, pH 7.2 (reagent 1)
3. For most assays, a 2 mM stock solution of the test drug is made up in a suitable solvent and serially diluted such that the final concentration in the preincubation step ranges from 10^-3 to 10^-6 M. Different concentrations may be used depending on the potency of the drug.
Male Wistar rats are decapitated, brains rapidly removed, corpora striata dissected free, weighed and homogenized in 19 volumes (approximately 7 mg protein/ml) of 0.05M phosphate buffer, pH 7.2 using a Potter-Elvehjem homogenizer. A 50 microliter aliquot of the homogenate is added to 50 microliter vehicle of various concentrations of the test drug and preincubated for 10 minutes at room temperature.
1. For routine IC50 determinations the Abbott Bichromatic Analyzer, ABA-100, is used to determine acetylcholinesterase activity.
Incubation temperature: 30° C.
Reaction direction: down:endpoint
Syringe plate: 1:101 dilution
Following the 10 minute preincubation of the tissue (enzyme) with the inhibitor, the samples are mixed with the substrate chromogen buffer by the ABA-100. Using the indicated instrument settings the ABA-100 automatically reads the color reaction and prints out the results in enzyme units after 15 minutes.
2. The enzyme activity can also be measured with a Gilford 250 spectrophotometer. This method is used for more accurate kinetic measurements.
Reagents are added to the reference and sample side of a split curvette as follows:
The unhibited activity of the enzyme (tissue homogenate) is first determined. Test drugs are made up in a suitable solvent and added in suitable dilutions to the buffer vehicle. The reaction rate is determined by the slope of the recorded absorbance change. The actual rate (moles/liter/min) can be calculated as described in the following formula
rate (moles/liter/min)=slope/(1.36×10^4)

SMILES	IC50 [nM]
CN1CC[C@@]2(C)c3ccc(OC(=O)NC4CCCCC4)cc3N(C)[C@@H]12 (relative stereo) [cis-(±)-1,2,3,3a,8,8a-Hexahydro-1,3a,8-trimethylpyrrolo[2,3-b]indol-6-ylcyclohexyl carbamate salicylate]	5500
CNC(=O)Oc1cccc2c1[C@]1(C)CCN(C)[C@@H]1N2C (relative stereo) [cis-(±)-1,2,3,3a,8,8a-Hexahydro-1,3a,8-trimethylpyrrolo[2,3-b]indol-4-ylmethylcarbamate fumarate]	60
CNC(=O)Oc1ccc2c(c1)N(C)[C@H]1N(C)CC[C@@]21C (relative stereo) [cis-(±)-1,2,3,3a,8,8a-Hexahydro-1,3a,8-trimethylpyrrolo[2,3-b]indol-6-ylmethylcarbamate salicylate]	230
CN1CC[C@@]2(C)c3c(OC(=O)NC4CCCCC4)cccc3N(C)[C@@H]12 (relative stereo) [cis-(±)-1,2,3,3a,8,8a-Hexahydro-1,3a,8-trimethylpyrrolo[2,3-b]indol-4-ylcyclohexyl carbamate fumarate]	550
CNC(=O)Oc1cc2c(cc1Br)[C@]1(C)CCN(C)[C@@H]1N2C (relative stereo) [cis-(±)-5-Bromo-1,2,3,3a,8,8a-hexahydro-1,3a,8-trimethylpyrrolo[2,3-b]indol-6-yl methyl carbamate sesquifumarate]	13
